Like-named read-outs stand apart in the source and are kept apart here.
Assays:
DNA-PK = DNA-PK (Homo sapiens (Human), UniProt P78527); assay: DNA-PK biochemical assay (Reaction Biology HotSpot kinase assay, 10 μM ATP)
Procedure: DNA-PK Biochemical Assay Using Reaction Biology's HotSpot Kinase Assay Protocol:
Reagent: Base Reaction buffer; 20 mM Hepes (pH 7.5), 10 mM MgCl2, 1 mM EGTA, 0.01% Brij35, 0.02 mg/ml BSA, 0.1 mM Na3VO4, 2 mM DTT, 1% DMSO Required cofactors are added individually to each kinase reaction.
Reaction Procedure: 1. Prepare substrate in freshly prepared Reaction Buffer; 2. Deliver any required cofactors to the substrate solution above; 3. Deliver kinase into the substrate solution and gently mix; 4. Deliver compounds in 100% DMSO into the kinase reaction mixture by Acoustic technology (Echo550; nanoliter range), incubate for 20 min at room temperature; 5. Deliver 33P-ATP into the reaction mixture to initiate the reaction; 6. Incubate for 2 hours at room temperature; 7. Detect kinase activity by P81 filter-binding method.

ATM = ATM (Homo sapiens (Human), UniProt Q13315); assay: ATM biochemical assay (Reaction Biology HTRF kinase assay, 10 μM ATP)
Procedure: Ataxia-Telangiectasia Mutated (ATM) Biochemical Assay Using Reaction Biology's HTRF Kinase Assay Protocol:
The assay detects kinase activity by antibody based HTRF assay. The GST-tagged p53 protein serves as substrate and Eu-labeled-antibody with specific phosphorylation site binds upon phosphorylation which is monitored by HTRF from the anti-GST-d2.
Reagent: Reaction buffer; 50 mM Hepes (pH 7.5), 150 mM NaCl, 10 mM MnCl2, 1% Glycerol, 0.01% Brij35, 1 mM DTT, 1% DMSO.
Substrate: Human p53 (aa2-393), RBC produced in E. coli, N-terminal GST-Tag, MW=70.42 kDa.
Detection; MAb Anti-p53-pS15-Eu cryptate, CisBio cat #61P08KAZ; MAb Anti GST-d2
Reaction Procedure: 1. Deliver 2× Enzyme in wells of reaction plate except No E control wells. Add buffer instead; 2. Deliver compounds in 100% DMSO into the kinase reaction mixture by Acoustic technology (Echo550; nanoliter range), incubate for 30 min at room temperature; 3. Deliver 2× substrate+ATP mixture into the reaction mixture to initiate the reaction; 4. Incubate for 2 hours at room temperature.
HTRF Detection: 1. Deliver 2× Stop/Detection mixture and incubate for 2 hours to overnight in the dark. 2. HTRF measurement (Ex/Em1/Em2=320/615/665 nm) in EnVision.

[1] = biological target: PI3Kδ (His-PIK3CD/PIK3R1, p110 delta/p85 alpha) (Homo sapiens (Human), UniProt O00329); assay: PI3Kδ biochemical assay (HTRF/FRET probe); assay type: binding; details: class symbol
Procedure: Phosphoinositide 3-kinase (PI3K) Biochemical Assay: A solution was prepared containing 0.2 nM Anti-HIS-Terbium (Cisbio, 64CUSTAZU), 40 nM designed-probe and 1.0 nM His-PIK3CD/PIK3R1 (p110 delta/p85 alpha) in FRET Buffer (20 mM HEPES, 10 mM MgCl2, 0.015% Brij-35, 4 mM DTT, 0.05 mg/mL BSA).

[2] = biological target: PI3Kα (His-PIK3CA/PIK3R1, p110 alpha/p85 alpha) (Homo sapiens (Human), UniProt P42336); assay: PI3Kα biochemical assay (HTRF/FRET probe); assay type: binding; details: class symbol
Procedure: Phosphoinositide 3-kinase α (PI3Kα) Biochemical Assay: A solution was prepared containing 0.2 nM Anti-HIS-Terbium (Cisbio, 64CUSTAZU), 3.7 nM designed-probe and 1.0 nM His-PIK3CA/PIK3R1 (p110 alpha/p85 alpha) in FRET Buffer (20 mM HEPES, 10 mM MgCl2, 0.015% Brij-35, 4 mM DTT, 0.05 mg/mL BSA).

[3] = read-out: DNA-PK HotSpot 10 μM ATP IC50, class symbol
[4] = read-out: ATM HTRF 10 μM ATP IC50, class symbol

Chain of PI3Kδ (His-PIK3CD/PIK3R1, p110 delta/p85 alpha) (O00329 whole entry, species assumed): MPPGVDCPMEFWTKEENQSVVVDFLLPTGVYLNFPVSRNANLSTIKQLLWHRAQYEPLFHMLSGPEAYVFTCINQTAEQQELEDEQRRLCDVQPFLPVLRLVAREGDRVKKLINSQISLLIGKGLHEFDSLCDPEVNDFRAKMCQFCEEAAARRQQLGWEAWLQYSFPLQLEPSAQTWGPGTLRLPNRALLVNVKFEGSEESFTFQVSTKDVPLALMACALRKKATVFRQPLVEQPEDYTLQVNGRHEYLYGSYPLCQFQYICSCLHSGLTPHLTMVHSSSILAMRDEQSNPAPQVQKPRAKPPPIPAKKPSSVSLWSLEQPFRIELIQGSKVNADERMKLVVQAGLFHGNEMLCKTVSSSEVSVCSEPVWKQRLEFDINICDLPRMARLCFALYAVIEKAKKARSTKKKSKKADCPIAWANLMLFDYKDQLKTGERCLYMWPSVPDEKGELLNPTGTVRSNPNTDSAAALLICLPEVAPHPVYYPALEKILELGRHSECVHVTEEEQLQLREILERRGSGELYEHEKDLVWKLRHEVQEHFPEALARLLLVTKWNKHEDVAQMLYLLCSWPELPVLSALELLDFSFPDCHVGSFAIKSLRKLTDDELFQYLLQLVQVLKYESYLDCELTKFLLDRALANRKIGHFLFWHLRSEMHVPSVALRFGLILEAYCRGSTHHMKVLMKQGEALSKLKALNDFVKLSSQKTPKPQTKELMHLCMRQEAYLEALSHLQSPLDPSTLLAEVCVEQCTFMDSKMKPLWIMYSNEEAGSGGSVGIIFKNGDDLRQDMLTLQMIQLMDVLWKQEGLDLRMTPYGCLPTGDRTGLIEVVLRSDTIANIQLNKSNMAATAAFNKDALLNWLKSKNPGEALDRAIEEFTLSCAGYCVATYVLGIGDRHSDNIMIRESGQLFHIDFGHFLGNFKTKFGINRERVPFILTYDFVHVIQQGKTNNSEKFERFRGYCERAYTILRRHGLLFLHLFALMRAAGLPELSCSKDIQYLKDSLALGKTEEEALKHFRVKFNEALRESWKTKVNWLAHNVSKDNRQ
Chain of PI3Kδ (His-PIK3CD/PIK3R1, p110 delta/p85 alpha) (P27986 whole entry partner, species assumed): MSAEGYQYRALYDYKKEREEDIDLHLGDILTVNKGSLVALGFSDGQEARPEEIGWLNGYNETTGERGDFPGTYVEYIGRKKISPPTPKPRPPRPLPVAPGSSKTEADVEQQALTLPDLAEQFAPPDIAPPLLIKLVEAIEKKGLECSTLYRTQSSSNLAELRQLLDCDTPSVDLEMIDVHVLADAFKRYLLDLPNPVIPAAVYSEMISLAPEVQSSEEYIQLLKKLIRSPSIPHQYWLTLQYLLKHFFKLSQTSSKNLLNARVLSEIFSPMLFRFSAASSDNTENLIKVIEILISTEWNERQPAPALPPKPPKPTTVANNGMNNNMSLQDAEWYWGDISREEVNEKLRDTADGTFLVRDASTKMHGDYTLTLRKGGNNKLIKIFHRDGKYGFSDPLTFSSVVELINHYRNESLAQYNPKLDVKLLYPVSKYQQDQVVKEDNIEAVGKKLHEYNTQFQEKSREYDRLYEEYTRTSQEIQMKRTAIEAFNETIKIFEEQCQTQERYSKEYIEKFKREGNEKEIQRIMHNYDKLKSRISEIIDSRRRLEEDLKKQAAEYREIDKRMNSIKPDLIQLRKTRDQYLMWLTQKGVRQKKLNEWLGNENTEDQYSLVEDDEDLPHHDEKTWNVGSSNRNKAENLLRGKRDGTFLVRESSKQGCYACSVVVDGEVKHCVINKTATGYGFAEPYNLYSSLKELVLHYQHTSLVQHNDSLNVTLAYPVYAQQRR
Chain of PI3Kα (His-PIK3CA/PIK3R1, p110 alpha/p85 alpha) (P42336 whole entry, species assumed): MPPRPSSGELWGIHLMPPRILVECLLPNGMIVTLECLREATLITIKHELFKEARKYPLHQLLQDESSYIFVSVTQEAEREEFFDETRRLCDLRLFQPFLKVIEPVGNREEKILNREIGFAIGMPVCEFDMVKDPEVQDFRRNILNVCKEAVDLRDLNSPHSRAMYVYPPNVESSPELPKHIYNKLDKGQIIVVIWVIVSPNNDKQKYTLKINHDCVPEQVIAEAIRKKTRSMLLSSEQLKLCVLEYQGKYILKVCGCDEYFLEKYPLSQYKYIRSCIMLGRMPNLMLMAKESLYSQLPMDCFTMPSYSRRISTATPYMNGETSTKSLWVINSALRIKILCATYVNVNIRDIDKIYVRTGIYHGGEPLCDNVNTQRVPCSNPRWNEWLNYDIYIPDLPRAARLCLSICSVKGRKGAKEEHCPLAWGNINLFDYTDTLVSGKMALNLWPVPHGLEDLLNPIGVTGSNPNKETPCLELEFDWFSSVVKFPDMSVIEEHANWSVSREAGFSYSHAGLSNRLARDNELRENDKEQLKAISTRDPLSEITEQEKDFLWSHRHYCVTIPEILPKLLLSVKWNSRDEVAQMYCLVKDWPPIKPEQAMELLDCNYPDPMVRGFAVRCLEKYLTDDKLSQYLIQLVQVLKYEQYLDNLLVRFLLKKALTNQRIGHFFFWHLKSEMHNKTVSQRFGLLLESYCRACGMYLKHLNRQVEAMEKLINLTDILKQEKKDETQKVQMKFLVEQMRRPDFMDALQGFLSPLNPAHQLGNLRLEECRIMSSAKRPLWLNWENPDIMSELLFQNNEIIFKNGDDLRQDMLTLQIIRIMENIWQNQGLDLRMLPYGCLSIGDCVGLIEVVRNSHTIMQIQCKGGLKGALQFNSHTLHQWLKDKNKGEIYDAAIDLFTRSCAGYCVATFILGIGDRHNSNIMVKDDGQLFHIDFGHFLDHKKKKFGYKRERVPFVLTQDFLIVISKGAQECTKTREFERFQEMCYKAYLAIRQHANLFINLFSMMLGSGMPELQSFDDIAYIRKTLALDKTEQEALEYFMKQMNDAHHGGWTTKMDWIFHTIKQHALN
Chain of PI3Kα (His-PIK3CA/PIK3R1, p110 alpha/p85 alpha) (P27986 whole entry partner, species assumed): as the sequence (P27986 whole entry partner, species assumed) above

Compound	IC50 (DNA-PK; class symbol)	IC50 (ATM; class symbol)	IC50 [1]	IC50 [2]	IC50 (DNA-PK; [3])	IC50 (ATM; [4])
COC12CCC(n3c(=O)n(C)c4cnc(Nc5cc6c(cc5C)OCCO6)nc43)(CC1)C2 [Compound 10, 9-(4-methoxybicyclo[2.2.1]heptan-1-yl)-7-methyl-2-((7-methyl-2,3-dihydrobenzo[b][1,4]dioxin-6-yl)amino)-7,9-dihydro-8H-purin-8-one]		0.1 to 1 µM	≥ 1 µM	0.01 to 0.1 µM	< 0.001 µM	
COC12CCC(n3c(=O)n(C)c4cnc(Nc5cn6ncnc6cc5C)nc43)(C1)C2 [Compound 29, 9-(4-methoxybicyclo[2.1.1]hexan-1-yl)-7-methyl-2-((7-methyl-[1,2,4]triazolo[1,5-a]pyridin-6-yl)amino)-7,9-dihydro-8H-purin-8-one]	0.001 to 0.01 µM	0.1 to 1 µM	≥ 1 µM	≥ 1 µM		
Cc1cc2nsnc2cc1Nc1ncc2c(n1)n(C13CC(F)(C1)C3)c(=O)n2C [Compound 14, 9-(3-fluorobicyclo[1.1.1]pentan-1-yl)-7-methyl-2-((6-methylbenzo[c][1,2,5]thiadiazol-5-yl)amino)-7,9-dihydro-8H-purin-8-one]		0.1 to 1 µM	≥ 1 µM	0.1 to 1 µM	< 0.001 µM	
Cc1cc2nsnc2cc1Nc1ncc2c(n1)n(C13CCC(O)(CC1)C3)c(=O)n2C [Compound 3, 9-(4-hydroxybicyclo[2.2.1]heptan-1-yl)-7-methyl-2-((6-methylbenzo[c][1,2,5]thiadiazol-5-yl)amino)-7,9-dihydro-8H-purin-8-one]		0.001 to 0.01 µM	≥ 1 µM	0.01 to 0.1 µM	< 0.001 µM	
Cc1cc2ncnn2cc1Nc1ncc2c(n1)N(C13CC(F)(C1)C3)CC(=O)N2C [Compound 54, 8-{3-Fluorobicyclo[1.1.1]pentan-1-yl}-5-methyl-2-({7-methyl-[1,2,4]triazolo[1,5-a]pyridin-6-yl}amino)-5,6,7,8-tetrahydropteridin-6-one]	0.001 to 0.01 µM		≥ 1 µM	≥ 1 µM		≥ 1 µM
Cc1cc2ncnn2cc1Nc1ncc2c(C)nn(C34CC(C3)C4)c2n1 [Compound 47, 1-(bicyclo[1.1.1]pentan-1-yl)-3-methyl-N-(7-methyl-[1,2,4]triazolo[1,5-a]pyridin-6-yl)-1H-pyrazolo[3,4-d]pyrimidin-6-amine]	0.001 to 0.01 µM	0.1 to 1 µM	≥ 1 µM	≥ 1 µM		
Cc1cc2ncnn2cc1Nc1ncc2c(n1)n(C13CC(C(F)(F)F)(C1)C3)c(=O)n2C [Compound 18, 7-methyl-2-((7-methyl-[1,2,4]triazolo[1,5-a]pyridin-6-yl)amino)-9-(3-(trifluoromethyl)bicyclo[1.1.1]pentan-1-yl)-7,9-dihydro-8H-purin-8-one]	0.001 to 0.01 µM	0.001 to 0.01 µM	≥ 1 µM	≥ 1 µM		
Cc1cc2ncnn2cc1Nc1ncc2c(n1)n(C13CC(CC#N)(C1)C3)c(=O)n2C [Compound 22, 2-(3-(7-methyl-2-((7-methyl-[1,2,4]triazolo[1,5-a]pyridin-6-yl)amino)-8-oxo-7,8-dihydro-9H-purin-9-yl)bicyclo[1.1.1]pentan-1-yl)acetonitrile]	0.001 to 0.01 µM	0.001 to 0.01 µM	≥ 1 µM	0.1 to 1 µM		
Cc1cc2ncnn2cc1Nc1ncc2c(n1)N(C13CC(F)(C1)C3)C(=O)C21CC1 [Compound 70, 7′-(3-fluorobicyclo[1.1.1]pentan-1-yl)-2′-((7-methyl-[1,2,4]triazolo[1,5-a]pyridin-6-yl)amino)spiro[cyclopropane-1,5′-pyrrolo[2,3-d]pyrimidin]-6′(7′H)-one]		0.1 to 1 µM	≥ 1 µM	≥ 1 µM	< 0.001 µM	
COC12CCC(n3c(=O)n(C)c4cnc(Nc5cc(F)c(C(N)=O)cc5C)nc43)(C1)C2 [Compound 40, 2-fluoro-4-((9-(4-methoxybicyclo[2.1.1]hexan-1-yl)-7-methyl-8-oxo-8,9-dihydro-7H-purin-2-yl)amino)-5-methylbenzamide]	0.001 to 0.01 µM	0.1 to 1 µM	≥ 1 µM	0.1 to 1 µM		
Cc1cc2c(cc1Nc1ncc3c(n1)n(C14CC(F)(C1)C4)c(=O)n3C)OCCO2 [Compound 16, 9-(3-fluorobicyclo[1.1.1]pentan-1-yl)-7-methyl-2-((7-methyl-2,3-dihydrobenzo[b][1,4]dioxin-6-yl)amino)-7,9-dihydro-8H-purin-8-one]	0.01 to 0.1 µM	0.1 to 1 µM	≥ 1 µM	≥ 1 µM		
Cc1cc2ncccc2cc1Nc1ncc2c(n1)N(C13CC(F)(C1)C3)C(=O)C21CC1 [Compound 71, 7′-(3-fluorobicyclo[1.1.1]pentan-1-yl)-2′-((7-methylquinolin-6-yl)amino)spiro[cyclopropane-1,5′-pyrrolo[2,3-d]pyrimidin]-6′(7′H)-one]		0.1 to 1 µM	≥ 1 µM	0.1 to 1 µM	< 0.001 µM	

Now from value to molecule:

IC50 (DNA-PK; class symbol)	IC50 (ATM; class symbol)	IC50 [1]	IC50 [2]	IC50 (DNA-PK; [3])	IC50 (ATM; [4])	Compound
0.001 to 0.01 µM	0.001 to 0.01 µM	≥ 1 µM	0.1 to 1 µM			COC12CCC(n3c(=O)n(C)c4cnc(Nc5cc(F)c(-c6cnco6)cc5C)nc43)(C1)C2 [Compound 41, 2-((5-fluoro-2-methyl-4-(oxazol-5-yl)phenyl)amino)-9-(4-methoxybicyclo[2.1.1]hexan-1-yl)-7-methyl-7,9-dihydro-8H-purin-8-one]
0.001 to 0.01 µM	0.1 to 1 µM	0.01 to 0.1 µM	0.1 to 1 µM			Cc1cc2ncnn2cc1Nc1ncc2c(n1)n(C13CCC(O)(CC1)C3)c(=S)n2C [Compound 31, 9-(4-hydroxybicyclo[2.2.1]heptan-1-yl)-7-methyl-2-((7-methyl-[1,2,4]triazolo[1,5-a]pyridin-6-yl)amino)-7,9-dihydro-8H-purine-8-thione]
	0.01 to 0.1 µM	≥ 1 µM	0.1 to 1 µM	< 0.001 µM		COC12CCC(n3c(=O)n(C)c4cnc(Nc5cc6c(cc5C)OCO6)nc43)(CC1)CC2 [Compound 26, 9-(4-methoxybicyclo[2.2.2]octan-1-yl)-7-methyl-2-((6-methylbenzo[d][1,3]dioxol-5-yl)amino)-7,9-dihydro-8H-purin-8-one]
0.01 to 0.1 µM		0.1 to 1 µM	≥ 1 µM		≥ 1 µM	Cc1cc2ncnn2cc1Nc1ncc2c(n1)n(C13CC(F)(C1)C3)c(=S)n2C [Compound 34, 9-(3-fluorobicyclo[1.1.1]pentan-1-yl)-7-methyl-2-((7-methyl-[1,2,4]triazolo[1,5-a]pyridin-6-yl)amino)-7,9-dihydro-8H-purine-8-thione]
	0.01 to 0.1 µM	0.1 to 1 µM	0.01 to 0.1 µM	< 0.001 µM		COC12CCC(n3c(=O)n(C)c4cnc(Nc5cc6nccnc6cc5C)nc43)(CC1)C2 [Compound 9, 9-(4-methoxybicyclo[2.2.1]heptan-1-yl)-7-methyl-2-((7-methylquinoxalin-6-yl)amino)-7,9-dihydro-8H-purin-8-one]
0.001 to 0.01 µM	0.1 to 1 µM	0.1 to 1 µM	0.1 to 1 µM			Cc1cc2ncnn2cc1Nc1ncc2c(n1)N(C13CCC(O)(CC1)C3)CC(=O)N2C [Compound 51, 8-{4-Hydroxybicyclo[2.2.1]heptan-1-yl}-5-methyl-2-({7-methyl-[1,2,4]triazolo[1,5-a]pyridin-6-yl}amino)-5,6,7,8-tetrahydropteridin-6-one]
0.001 to 0.01 µM	0.01 to 0.1 µM	0.1 to 1 µM	0.1 to 1 µM			Cc1cc2ncccc2cc1Nc1ncc2c(n1)N(C13CC(F)(C1)C3)CC(=O)N2C [Compound 57, 8-(3-fluorobicyclo[1.1.1]pentan-1-yl)-5-methyl-2-((7-methylquinolin-6-yl)amino)-7,8-dihydropteridin-6(5H)-one]

— US20250263753A1, “BRIDGED CYCLE-BASED INHIBITORS OF DNA-DEPENDENT PROTEIN KINASE AND COMPOSITIONS AND APPLICATION IN GENE EDITING” (Juno Therapeutics, Inc., priority 2023, published 2025)
